Data from DBAASP.
≈ marks a conversion by molar mass, not a printed value. Where “and” joins values, the source holds several entries; their conditions need not be identical. Equal entries are not always repeated.

Experiments:
Experiment in all cases: ≥ marks a high value that may be exact or a test limit, other limits are often not marked, values filed in µg/mL are converted to µM
[1] = system: Shigella dysenteriae
[2] = system: Candida albicans ATCC 2002
[3] = system: Staphylococcus aureus ATCC 2592
[4] = system: Escherichia coli ATCC 25922
[5] = system: Bacillus subtilis ATCC 6633
[6] = system: Pseudomonas aeruginosa ATCC 27853
[7] = system: Bacillus subtilis
[8] = system: Staphylococcus aureus NCTC 8325
[9] = system: Staphylococcus epidermidis RP62A
[10] = system: Enterococcus faecalis ATCC 29212
[11] = system: Candida albicans F7-39/IDE99
[12] = system: Staphylococcus aureus
[13] = system: Pseudomonas aeruginosa
[14] = system: Bacillus subtilis 168
[15] = system: Escherichia coli B
[16] = system: Escherichia coli K-12
[17] = system: Staphylococcus aureus USA 300
[18] = system: Pseudomonas aeruginosa CMCCB 10104
[19] = system: Escherichia coli BW25113
[20] = system: Escherichia coli
[21] = system: Klebsiella pneumoniae ATCC 13883
[22] = system: Salmonella enterica subsp. enterica serovar Typhimurium ATCC 14028
[23] = system: Staphylococcus aureus ATCC 25923
[24] = system: Streptococcus pyogenes ATCC 19615

## CC[C@H](C)[C@H](NC(=O)[C@@H]1CCCN1C(=O)[C@H](Cc1ccccc1)NC(=O)[C@@H](N)Cc1ccccc1)C(=O)N[C@H](C(=O)NCC(=O)N[C@@H](CCCCN)C(=O)N[C@@H](CCCN=C(N)N)C(=O)N[C@@H](CC(C)C)C(=O)N[C@@H](Cc1ccc(O)cc1)C(=O)NCC(=O)N[C@@H](CC(C)C)C(=O)N[C@@H](CC(C)C)C(N)=O)C(C)C [FFPIVGKRLYGLL]
[1]
  MIC: 12.3 µM (≈ 18.7 µg/mL)
[2]
  MIC: 24.6 µM (≈ 37.5 µg/mL)
[3]
  MIC: 3.09 µM (≈ 4.7 µg/mL)
[4]
  MIC: 46 µM (≈ 70 µg/mL)
[5]
  MIC: 6.16 µM (≈ 9.37 µg/mL)

## CC[C@H](C)[C@H](NC(=O)[C@H](C)NC(=O)CNC(=O)[C@@H](NC(=O)[C@@H](NC(=O)[C@@H](NC(=O)CNC(=O)[C@@H](NC(=O)[C@@H](NC(=O)[C@@H](NC(=O)[C@H](C)NC(=O)[C@H](Cc1ccccc1)NC(=O)[C@H](CC(C)C)NC(=O)[C@H](CCCN=C(N)N)NC(=O)[C@H](CCCN=C(N)N)NC(=O)[C@H](CC(C)C)NC(=O)CNC(=O)CNC(=O)[C@@H](NC(=O)[C@@H](N)Cc1ccccc1)[C@@H](C)CC)[C@@H](C)O)C(C)C)C(C)C)[C@@H](C)O)C(C)C)C(C)C)C(=O)N[C@@H](CC(N)=O)C(=O)N[C@@H](CCCCN)C(=O)N[C@@H](CC(C)C)C(=O)NCC(=O)NCC(=O)NCC(=O)O [FIGGLRRLFATVVGTVVGAINKLGGG]
[6]
  MIC: 8 µM (≈ 20.6 µg/mL)
[2]
  MIC: 2.45 µM (≈ 6.3 µg/mL)
[3]
  MIC: 4.86 µM (≈ 12.5 µg/mL)
[7]
  MIC: ≥ 38.9 µM
[4]
  MIC: 4.86 µM (≈ 12.5 µg/mL)

## CC[C@H](C)[C@H](NC(=O)[C@@H](NC(=O)[C@@H]1CCCN1C(=O)[C@H](CC(C)C)NC(=O)[C@@H](N)Cc1ccccc1)[C@@H](C)CC)C(=O)NCC(=O)N[C@@H](CCC(N)=O)C(=O)N[C@@H](CC(C)C)C(=O)N[C@@H](CC(C)C)C(=O)N[C@@H](CO)C(=O)NCC(=O)N[C@@H](CC(C)C)C(=O)N[C@@H](CC(C)C)C(N)=O [FLPIIGQLLSGLL]
[8]
  MIC: ≥ 80 µM
[9]
  MIC: ≥ 80 µM
[10]
  MIC: > 80 µM

## CSCC[C@H](NC(=O)[C@H](CCCCN)NC(=O)[C@H](Cc1ccccc1)NC(=O)CN)C(=O)N[C@@H](C)C(=O)N[C@@H](CC(C)C)C(=O)N[C@@H](CCCCN)C(=O)N[C@@H](CC(C)C)C(=O)N[C@@H](CC(C)C)C(=O)N[C@@H](CCCCN)C(=O)N[C@@H](CCCCN)C(=O)N[C@H](C(=O)N[C@@H](CC(C)C)C(N)=O)C(C)C [GFKMALKLLKKVL]
[11]
  MIC: 4.3 µM (≈ 6.4 µg/mL)
[12]
  MIC: 5 µM (≈ 7.44 µg/mL)
[13]
  MIC: 11.3 µM (≈ 16.8 µg/mL)
[14]
  MIC: 1.3 µM (≈ 1.93 µg/mL)
[15]
  MIC: 2.3 µM (≈ 3.42 µg/mL)

## CC[C@H](C)[C@H](NC(=O)[C@H](CCCN=C(N)N)NC(=O)[C@H](CCC(N)=O)NC(=O)[C@@H](NC(=O)[C@@H](NC(=O)[C@H](CCCN=C(N)N)NC(=O)[C@H](CCCCN)NC(=O)[C@H](Cc1ccccc1)NC(=O)CN)[C@@H](C)CC)C(C)C)C(=O)N[C@@H](CCCCN)C(=O)N[C@@H](CC(=O)O)C(=O)N[C@@H](Cc1ccccc1)C(=O)N[C@@H](CC(C)C)C(=O)N[C@@H](C)C(=O)N[C@@H](CC(N)=O)C(=O)N[C@@H](CC(C)C)C(=O)N[C@H](C(N)=O)C(C)C [GFKRIVQRIKDFLANLV]
[16]
  MIC: 15 µM (≈ 30.2 µg/mL)
[17]
  MIC: 7.5 µM and 3.1 µM

## CC[C@H](C)[C@H](NC(=O)[C@H](CC(C)C)NC(=O)[C@H](Cc1cnc[nH]1)NC(=O)CNC(=O)[C@H](CC(C)C)NC(=O)[C@@H](NC(=O)[C@H](CCCCN)NC(=O)[C@H](CCCCN)NC(=O)[C@H](Cc1c[nH]c2ccccc12)NC(=O)[C@H](CCCCN)NC(=O)CN)[C@@H](C)CC)C(=O)N[C@@H](CCCN=C(N)N)C(N)=O [GKWKKILGHLIR]
[11]
  MIC: 5.3 µM (≈ 7.67 µg/mL)
[12]
  MIC: 28.3 µM (≈ 41 µg/mL)
[13]
  MIC: 30 µM (≈ 43.4 µg/mL)
[14]
  MIC: 1.2 µM (≈ 1.74 µg/mL)
[15]
  MIC: 2.7 µM (≈ 3.91 µg/mL)

## CC[C@H](C)[C@H](NC(=O)[C@H](Cc1cnc[nH]1)NC(=O)[C@H](CCCCN)NC(=O)[C@H](CC(C)C)NC(=O)[C@H](CC(C)C)NC(=O)[C@H](CO)NC(=O)[C@H](CCSC)NC(=O)[C@H](Cc1c[nH]c2ccccc12)NC(=O)[C@H](CCCCN)NC(=O)CN)C(=O)N[C@@H](CC(C)C)C(=O)N[C@@H](CCCCN)C(N)=O [GKWMSLLKHILK]
[11]
  MIC: 6.6 µM (≈ 9.59 µg/mL)
[12]
  MIC: 8.1 µM (≈ 11.8 µg/mL)
[13]
  MIC: 42.1 µM (≈ 61.2 µg/mL)
[14]
  MIC: 1 µM (≈ 1.45 µg/mL)
[15]
  MIC: 2.5 µM (≈ 3.63 µg/mL)

## CC[C@H](C)[C@H](N)C(=O)N[C@@H](CC(C)C)C(=O)NCC(=O)N1CCC[C@H]1C(=O)N[C@H](C(=O)N[C@H](C(=O)N[C@@H](CO)C(=O)N[C@H](C(=O)N[C@H](C(=O)NCC(=O)NCC(=O)N[C@H](C(=O)N[C@@H](CC(C)C)C(=O)NCC(=O)NCC(=O)N[C@@H](CC(C)C)C(=O)N[C@@H](CC(C)C)C(=O)N[C@@H](CCCCN)C(=O)N[C@@H](CC(N)=O)C(=O)N[C@@H](CC(C)C)C(N)=O)C(C)C)[C@@H](C)CC)[C@@H](C)O)[C@@H](C)CC)C(C)C [ILGPVISTIGGVLGGLLKNL]
[18]
  MIC: 4.65 µM (≈ 9 µg/mL)
[2]
  MIC: 2.33 µM (≈ 4.5 µg/mL)
[3]
  MIC: 2.33 µM (≈ 4.5 µg/mL)
[4]
  MIC: 4.65 µM (≈ 9 µg/mL)

## CC[C@H](C)[C@H](NC(=O)[C@H](CCCN=C(N)N)NC(=O)[C@@H](N)CCCN=C(N)N)C(=O)N[C@@H](CCCN=C(N)N)C(=O)N[C@@H](Cc1ccccc1)C(=O)N[C@@H](CCCN=C(N)N)C(=O)N1CCC[C@H]1C(=O)N1CCC[C@H]1C(=O)N[C@@H](Cc1ccc(O)cc1)C(=O)N[C@@H](CC(C)C)C(=O)N1CCC[C@H]1C(=O)N[C@@H](CCCN=C(N)N)C(=O)N1CCC[C@H]1C(=O)NCC(=O)N[C@@H](CCCN=C(N)N)C(=O)N[C@@H](CCCN=C(N)N)C(=O)O [RRIRFRPPYLPRPGRR]
[19]
  MIC: 4 µM (≈ 8.37 µg/mL)

## CC[C@H](C)[C@H](NC(=O)[C@@H]1CCCN1C(=O)[C@H](CCCN=C(N)N)NC(=O)[C@H](CCCN=C(N)N)NC(=O)[C@H](CCCN=C(N)N)NC(=O)[C@H](Cc1c[nH]c2ccccc12)NC(=O)[C@@H]1CCCN1C(=O)[C@H](CCCN=C(N)N)NC(=O)[C@H](CCCN=C(N)N)NC(=O)[C@H](CCCN=C(N)N)NC(=O)[C@@H](N)CCCN=C(N)N)C(=O)N[C@@H](CCCN=C(N)N)C(=O)N1CCC[C@H]1C(=O)N1CCC[C@H]1C(=O)N[C@@H](Cc1ccccc1)C(=O)N[C@@H](Cc1ccc(O)cc1)C(=O)N[C@@H](Cc1c[nH]c2ccccc12)C(=O)O [RRRRPWRRRPIRPPFYW]
[19]
  MIC: 8 µM (≈ 19.6 µg/mL)

## CC(C)C[C@H](NC(=O)[C@H](CCCCN)NC(=O)[C@H](CCCN=C(N)N)NC(=O)[C@H](Cc1c[nH]c2ccccc12)NC(=O)[C@H](Cc1c[nH]c2ccccc12)NC(=O)[C@H](CCCCN)NC(=O)[C@H](CCCCN)NC(=O)[C@H](Cc1c[nH]c2ccccc12)NC(=O)[C@H](CCCN=C(N)N)NC(=O)[C@H](CCCCN)NC(=O)[C@@H](N)C(C)C)C(=O)N[C@@H](CCCCN)C(=O)N[C@@H](CCCCN)C(=O)N[C@@H](CO)C(=O)N[C@H](C(N)=O)C(C)C [VKRWKKWWRKLKKSV]
[2]
  MIC: 4.56 µM (≈ 9.38 µg/mL)
[3]
  MIC: ≥ 48.6 µM
[7]
  MIC: ≥ 48.6 µM
[4]
  MIC: 9.12 µM (≈ 18.7 µg/mL)

## CC(C)C[C@H](NC(=O)[C@H](Cc1c[nH]c2ccccc12)NC(=O)[C@H](CCC(N)=O)NC(=O)[C@@H](N)C(C)C)C(=O)N[C@@H](CCC(=O)O)C(=O)N[C@@H](CCC(N)=O)C(=O)N[C@@H](CCC(N)=O)C(=O)N[C@H](C(=O)N[C@@H](C)C(=O)N[C@@H](CCCCN)C(=O)N[C@@H](CCCN=C(N)N)C(=O)N[C@@H](CCCN=C(N)N)C(=O)N[C@H](C(=O)N[C@@H](CCCCN)C(=O)N[C@@H](CCCN=C(N)N)C(=O)O)[C@@H](C)O)C(C)C [VQWLEQQVAKRRTKR]
[20]
  MIC: > 100 µM
[21]
  MIC: ≥ 100 µM
[22]
  MIC: > 100 µM
[6]
  MIC: > 100 µM
[10]
  MIC: > 100 µM
[7]
  MIC: ≥ 100 µM
[23]
  MIC: > 100 µM
[24]
  MIC: ≥ 100 µM
